For 93 compounds, AC50 results are on record in PubChem BioAssay AID449750 (Broad Institute, 2010).

Each structure is given as a SMILES string. Active and inactive are the calls of the source. How the calls were made is not given here.

A short description of this assay: non-covalent RecA intein splicing inhibitors, dose response, biochemical, cell-free, fluorescence, secondary screen (AID 449750).
For `CN(C(=O)c1ccc(S(=O)(=O)c2cccc(Cl)c2)c([N+](=O)[O-])c1)C1CCCCC1`, the half-maximal activity concentration (AC50) is 13.7 µM.
As for `O=C(NC(=C(Cl)Cl)S(=O)(=O)c1ccc(Cl)cc1)c1ccccc1`, the half-maximal activity concentration (AC50) is 4.78 µM.
For `CCN(CC)C(=O)c1ccc2c(c1)C1C(Cl)C(Sc3ccccc3[N+](=O)[O-])CC1C(C(=O)O)N2` (stereo not drawn) the value was 12.5 µM; for `CCN(CC)C(=O)CSc1nnc2nnc3cc(OC)ccc3n12`, > 38 µM (inactive).
For `COc1cccc(N2CC(C(=O)Nc3nnc(SCC(=O)c4ccccc4)s3)CC2=O)c1` (stereo not drawn) the value was > 38 µM (inactive); for `N=c1c2c(ncn1Cc1ccco1)Oc1ccc3ccccc3c1C2c1ccccc1` (stereo not drawn), 13.1 µM.
For `N#Cc1ncc(Cc2ccccc2)nc1C#N` the value was > 38 µM (inactive); for `O=C1C(Nc2ccccc2)=C/C(=N/S(=O)(=O)c2cccs2)c2ccccc21`, 0.226 µM.
`COc1ccc2nc3cccc(OC)c3nc2c1`: the AC50 is 16.1 µM.
For `Oc1cccc(C=Nc2cccc3ccccc23)c1O` the value was 4.42 µM; for `c1ccc(Nc2nc(NCc3ccco3)c3ccccc3n2)cc1`, 10.8 µM.
For `Cc1ccc(C2=NN(C(=O)CCl)C(c3cccs3)C2)o1` (stereo not drawn) the value was > 38 µM (inactive).
For `N#CC1=C(N)Oc2n[nH]c(-c3cccs3)c2C1c1cccs1` (stereo not drawn) the value was 9.22 µM.
On to `COc1cccc(-c2[nH]nc3c2C(c2ccoc2)C(C#N)=C(N)O3)c1` (stereo not drawn), for which the concentration at half-maximal activity (AC50) was 28.8 µM.
For `Cc1cccc(N2C(=O)C(Cl)=C(N3CCOCC3)C2=O)c1` the value was > 38 µM (inactive); for `CC1CC(C)CN(C(=O)c2ccc3c(c2)N(Cc2ccccc2)CCS3)C1` (stereo not drawn), 14 µM.
For `CC(C)(C)c1cc[n+](C2=C([O-])c3ccccc3C(=O)/C2=N\S(=O)(=O)c2ccccc2)cc1` the value was 9.74 µM; for `Cc1ccc(Nc2cc(C)nn2-c2nc(C)cc(=O)[nH]2)cc1`, 5.05 µM.
Regarding `O=C(Nc1ccccc1N(C(=O)c1ccco1)S(=O)(=O)c1cccs1)c1ccco1`, the AC50 is 23.1 µM.
For `C#CC(=O)N(c1cc(OC)ccc1OC)C(C(=O)NC1CCCC1)c1cccs1` (stereo not drawn) the value was 2.35 µM.
For the compound `Cc1[nH][nH]c(=O)c1C(c1cc2c(cc1Br)OCO2)c1c(C)[nH][nH]c1=O`, the AC50 is 20.2 µM.
As for `O=C(Nc1ccccc1)c1nnsc1S(=O)(=O)c1ccc(Cl)cc1`, the AC50 is > 38 µM (inactive).
As to `O=C1C(Cl)=C(N2CCCCC2)C(=O)N1c1ccccc1Cl`, the AC50 was > 38 µM (inactive).
Turning to `O=c1[nH]c2ccccc2n2c(-c3ccccc3)nnc12`, the half-maximal activity concentration (AC50) is 22.5 µM.
For `O=c1c2ccccc2nc(/C=C/c2cccnc2)n1CCc1ccccc1` the value was 15.9 µM; for `CC(C)CC(NC(=O)CCl)c1ccccc1` (stereo not drawn), 5.47 µM.
For `Cc1ccc(NC2=C(N3CCCCC3)C(=O)c3ccccc3C2=O)cc1` the value was 8.12 µM; for `Cc1cccc(N(Cc2cc(=O)[nH]c3ccccc23)C(=O)CCl)c1`, 6.83 µM; for `COc1cc(/C=C2\C(=O)N(CCC#N)N=C2C)ccc1OCC(=O)Nc1ccccc1`, 8.37 µM.
For `COCc1[nH]nc2c1C(c1ccc(OC)c(OC)c1)C(C#N)=C(N)O2` (stereo not drawn) the value was > 38 µM (inactive); for `Cc1ccc(-c2[nH]nc3c2C(c2ccc(OC(=O)N4CCOCC4)cc2)C(C#N)=C(N)O3)cc1` (stereo not drawn), 21.1 µM; for `CC1(C)C=C2C(=NN(c3ccccc3)C(N)=C2C#N)CO1`, 3.43 µM.
On to `CCCCn1c(N)c(C(=O)NCc2cccs2)c2nc3ccccc3nc21`, for which the AC50 was > 38 µM (inactive).
For `CCCCOC(=O)CNc1nnc(SCC(=O)OCC)[nH]c1=O` the value was > 38 µM (inactive); for `Cc1ccc(C(c2cc(Cl)c3cccnc3c2O)N2CCN(C)CC2)cc1` (stereo not drawn), 19.3 µM; for `COc1cc(/C=C/c2sc3ccccc3[n+]2CCCS(=O)(=O)[O-])ccc1O`, > 38 µM (inactive).
For `NC(=O)c1c(-c2cccs2)csc1N` the value was > 38 µM (inactive); for `CC(=O)Nc1ccc(OC(=O)c2ccco2)cc1`, > 38 µM (inactive); for `CN1CCN(C(c2ccc(Cl)cc2)c2cc(Cl)c3cccnc3c2O)CC1` (stereo not drawn), 24.8 µM.
For `COC(CN(C(=O)CCl)C(C(=O)NC1CCCCC1)c1ccc(Cl)cc1)OC` (stereo not drawn) the value was 7.61 µM; for `COC(=O)c1ccccc1S(=O)(=O)N1CCC(NC(=O)c2ccccc2)CC1`, > 38 µM (inactive); for `O=C(Oc1ccc(C(=S)N2CCOCC2)cc1)c1ccc([N+](=O)[O-])cc1[N+](=O)[O-]`, > 38 µM (inactive).
In the case of `COc1cc(/C=C2/SC(=S)NC2=O)ccc1OS(=O)(=O)c1ccc(C)cc1`, the concentration at half-maximal activity (AC50) was 5.83 µM.
For `O=[N+]([O-])c1ccc(Sc2nnnn2-c2ccccc2)nc1` the value was > 38 µM (inactive).
Regarding `CCC(=O)Oc1ccc(C(=O)Nc2cccc(C(=O)c3ccccc3)c2)cc1`, the AC50 was 32.8 µM.
Take `CCOc1ccc(N2C(=O)/C(=C\c3ccc(O)c(OC)c3)S(=O)(=O)C2c2cccc([N+](=O)[O-])c2)cc1` (stereo not drawn): the AC50 was > 38 µM (inactive).
Regarding `COc1cc(/C=C2/C(=O)N(c3ccc(Br)cc3)N=C2C)cc(OC)c1OC`, the concentration at half-maximal activity (AC50) is 7.07 µM.
For `CCn1c(O)c(N=Nc2cccc(S(=O)(=O)N3CCOCC3)c2)c(=O)n(CC)c1=S` the value was > 38 µM (inactive).
For `Cc1[nH]n(-c2ccccc2)c(=O)c1C(C[N+](=O)[O-])c1ccc(Cl)cc1` (stereo not drawn), the concentration at half-maximal activity (AC50) was 8.62 µM.
For `O=[N+]([O-])C(/C=C(/Cl)[N+](=O)[O-])=C(N1CCCCC1)N1CCCCC1` the value was > 38 µM (inactive); for `Fc1ccc(-[n+]2nc(Nc3ccccc3)sc2-c2c3ccccc3cc3ccccc23)cc1`, 12.4 µM; for `O=C(CCl)Nc1cc(S(=O)(=O)N2CCCCCC2)ccc1Cl`, 4.92 µM.
With `COc1ccc(NC(=O)CSc2c3c(nc4cc(Cl)ccc24)CCCC3)cc1OC`, the concentration at half-maximal activity (AC50) was 31.7 µM.
For `COCC(C)NC(=O)CCS(=O)(=O)c1nc(-c2ccc(OC)cc2)cc(C(F)(F)F)n1` (stereo not drawn) the value was > 38 µM (inactive); for `Cc1ccc(NC(=O)c2cc(NC(=O)/C=C\C(=O)O)ccc2N2CCCCC2)cc1`, 9.66 µM.
For `COC(=O)C(C#N)C(c1cccnc1)c1c(C)[nH][nH]c1=O` (stereo not drawn) the value was > 38 µM (inactive).
For `Cc1[nH]nc2c1C1(CCC3(CC1)OCCO3)C(C#N)=C(N)O2` the value was > 38 µM (inactive); for `O=C1C(Cl)=C(Nc2ccc3cn[nH]c3c2)C(=O)c2ccccc21`, 3.75 µM.
Regarding `CC1CCc2c(c3ccccc3n2C(=O)CCl)C1` (stereo not drawn), the half-maximal activity concentration (AC50) is 6.54 µM.
For `Nc1nc(CCl)nc(Nc2ccc3ccccc3c2)n1` the value was 15.7 µM.
For `CCCCOc1ccc(C(=O)C(CN2CCOCC2)c2ccccc2)cc1` (stereo not drawn) the value was 7.35 µM; for `O=C1CC(c2cccnc2)=NN1c1ccccc1`, > 38 µM (inactive); for `O=C(c1cccs1)[C@@H]1[C@@H]2C(=O)N(Cc3ccc4c(c3)OCO4)C(=O)[C@@H]2C2c3ccccc3C=CN21` (stereo partly drawn), 3.81 µM.
For `O=S(=O)(CCSc1nc2ccccc2s1)c1nc2ccccc2s1` the value was 27.3 µM; for `CCOC(=O)c1nnc(-c2ccccc2)nc1Sc1c(Cl)cccc1Cl`, > 38 µM (inactive).
Consider `CC(C)(C)c1ccc(S(=O)(=O)/N=C2\C=C(NS(=O)(=O)c3ccccc3)C(=O)c3ccccc32)cc1`, for which the concentration at half-maximal activity (AC50) is 5.5 µM.
For `Cc1c(N=C2C=CC(=O)c3ccccc32)c(=O)n(-c2ccccc2)n1C` the value was 3.51 µM; for `COc1ccc(OC)c(C(c2c(C)[nH][nH]c2=O)c2c(C)[nH][nH]c2=O)c1`, 13.5 µM.
For `COc1ccc(Br)cc1[C@H]1[C@H]2C=CC[C@@H](C)[C@@H]2C(=O)N1Cc1ccccc1` the value was 14.4 µM.
Turning to `O=C(CNC(=O)c1ccccc1)N/N=C/c1ccc([N+](=O)[O-])o1`, the AC50 was > 38 µM (inactive).
`N#CC1=C(N)Oc2n[nH]c(-c3cccs3)c2C1c1cccnc1` (stereo not drawn): the AC50 was > 38 µM (inactive).
Turning to `CCOc1ccc(CN(C)C(=O)CCl)cc1`, the concentration at half-maximal activity (AC50) is 11.1 µM.
For `O=C(CSCc1ccc([N+](=O)[O-])cc1)N/N=C/c1cccnc1` the value was > 38 µM (inactive); for `COc1ccc2c(c1)C(=C(C#N)C#N)C(=O)N2CCc1ccccc1`, > 38 µM (inactive); for `CC(=O)N1CCC2(CC1)C(C#N)=C(N)Oc1n[nH]c(C)c12`, > 38 µM (inactive).
For `Oc1[nH]c(=S)sc1C=C1N=c2ccccc2=N1` the value was > 38 µM (inactive).
Regarding `Cc1[nH]n(-c2ccccc2)c(=O)c1/C=N\NC(=O)C1COc2ccccc2O1` (stereo not drawn), the AC50 is 8.94 µM.
For `O=C(CCl)N1N=C(c2cccs2)CC1c1ccco1` (stereo not drawn) the value was 5.44 µM; for `Clc1ncnc2scc(C3COc4ccccc4O3)c12` (stereo not drawn), 7.28 µM; for `COC(=O)CC1=NN(c2nc(C)cc(C)n2)C(=O)C1`, > 38 µM (inactive).
As for `CC(=O)N(C1=C(N2CCOCC2)C(=O)c2ccccc2C1=O)c1ccc(C(=O)O)cc1`, the concentration at half-maximal activity (AC50) was 9.14 µM.
For `COc1ccc(NC(=S)Nc2ccc3nsnc3c2)cc1` the value was 25.2 µM.
As to `Cc1nn(-c2ccccc2)c2c1C(c1ccco1)C(C#N)=C(N)O2` (stereo not drawn), the AC50 was 14 µM.
As to `CC1=NN(c2ccccc2)C(=O)/C1=C/c1c(O)[nH]c(=O)[nH]c1=O`, the AC50 is > 38 µM (inactive).
For `CCc1ccc(S(=O)(=O)Nc2cc(SCC(=O)O)c(O)c3ccccc23)cc1` the value was 3.06 µM; for `Cc1ccc(-n2nnnc2CCl)cc1`, 24 µM; for `CCN1CCN(C(c2cccnc2)c2cc(Cl)c3cccnc3c2O)CC1` (stereo not drawn), 16 µM.
For the compound `Cc1ccc(C(=O)C(OC(=O)CN2C(=O)c3ccccc3C2=O)c2ccccc2)cc1C` (stereo not drawn), the AC50 is > 38 µM (inactive).
For `CCOc1cc(C(c2c(C)[nH][nH]c2=O)c2c(C)[nH][nH]c2=O)ccc1OC(=O)c1cccc([N+](=O)[O-])c1` the value was 6.48 µM.
For `Cn1c(SCC(=O)NCC2CCCO2)ncc(C(=O)Nc2ccc(Cl)cc2)c1=O` (stereo not drawn) the value was > 38 µM (inactive); for `COc1ccc(-c2[nH]nc3c2C(c2ccccc2OC(=O)N2CCOCC2)C(C#N)=C(N)O3)cc1` (stereo not drawn), 38.2 µM; for `Cc1nn(-c2ccccc2)c2c1C(c1cccs1)C(C#N)=C(N)O2` (stereo not drawn), 18.3 µM.
Turning to `Nc1ccc(N)c(C(=O)O)c1`, the AC50 was 21 µM.

One may read the AC50 as the concentration at which the activity in the assay is half-maximal.
